How the values were obtained:
in vivo = settings: SD, rat, po, 1 g/kg
Description: In this test six-week old SPF SD rats were used with two rats assigned to each group. […] The dosing volume was 10 ml/kg. […] All survivors at the end of the observation period underwent laparotomy under ether anesthesia and the blood samples were taken from the abdominal aorta for hematological tests and biochemical analysis. After sacrificing the animals, autopsy was performed for macroscopic observation of the organs and tissues. Tissue samples of vital organs from macroscopic legion were removed and fixed in 10% neutral buffered formalin solution, then processed by standard procedures for histopathology and examined under light microscope.

isolated rat hearts = assay: Cardioprotective activity in isolated ischemic heart models of rats (Langendorff, global ischemia/reperfusion); settings: 10 μM; for LDH (U/g): cumulative reperfusion LDH release; for EDP (MmHg): left ventricular end-diastolic pressure after 30 min reperfusion; for LDVP × HR (%): reperfusion double product as % of pretreatment DP, 30 min global ischemia, 30 min reperfusion; for TTC: time to contracture during global ischemia
Description: Male Sprague-Dawley rats weighing 300-450 g were anesthetized with sodium pentobarbital (100 mg/kg, i.p.). The tail vein was injected with heparin (1,000 U/kg) and then the trachea was intubated. […] A latex balloon filled with solvent (ethanol: water=1:1 (v/v)) and attached to a metal cannula was placed in the left ventricle through pulmonary vein and connected to a Isotec pressure transducer (H.S.E., Germany) for measurement of left ventricular pressure (LVP). […] Then, baseline contractile function, heart rate (HR), and coronary flow (CF) (extracorporeal electromagnetic flow probe, Narco Bio-System, U.S.A.) were measured. Cardiac contractile function was calculated by subtracting LVEDP from LV peak systolic pressure (LVSP), yielding developed pressure (LVDP). Double product (DP), another important parameter for assessing cardiac performance, was calculated by multiplying HR by LVDP. Throughout the experiment, all these parameters were measured, and calculated before and 10 min after pretreatment with each compound and 30 min after the onset of reperfusion with buffer. Data on reperfusion DP were further expressed as the percentage to pretreatment DP.
We then rendered the hearts globally ischemic by completely shutting off the perfusate for 30 min. Severity of ischemia was determined as the time to contracture (TTC, min) during global ischemia in which the first 5 mmHg increase in EDP was observed. Then, the hearts were reperfused and, 30 min later, contractile function (LVDP, DP) and cumulative reperfusion lactate dehydrogenase (LDH) release were measured. LDH was measured as a sensitive index for loss of cell viability with a kit supplied by Boerhinger Mannheim based on the technique of Wroblewski and LaDue [F. Wroblewski and JS.

[1] = test system: ischemic myocardium damage model of anesthetized rats; assay: Cardioprotective activity in ischemic heart models of rats (LAD occlusion/reperfusion, anesthetized rats); type: in vivo, rat; settings: rat in vivo, 0.3 mg/kg i.v.; for AAR/LV (%): area at risk per left ventricle; for IZ/AAR (%): myocardial infarction rate to area at risk, 45 min occlusion, 90 min reperfusion
Description: After trachetomy, the rats were rendered to respire artificially at a rate of 60/min with a stroke volume of 10 ml/kg. Cannulars were inserted into the fermoral vein and the fermoral artery and used for drug administration and blood pressure measurement, respectively.
In the ischemic myocardial injury models, the body temperature has an important influence on the results. To avoid the change in the body temperature, a body temperature measuring probe was inserted into the rectum of each rat and the body temperature was constantly kept at 37° C. with the aid of a homeothermic blanket control unit.
Afterwards, during testing, a continuous measurement was made of the mean arterial blood pressures and heart rates from the rats. For the measurement of the blood pressure, a pressure transducer, such as that manufactured by Grass Ins., MA, U.S.A., identified as Model Statham P23XL, was used.
The heart rate was measured by a tachometer, such as that manufactured by Gould Inc., Ohio, U.S.A., identified as Biotachometer. In addition, all of the changes occurring were continuously recorded through the Gould 2000 chart recorder, manufactured by Gould Inc.
The left coronary artery was occluded according to the Selye H. method as follows. The rats underwent a left thoracotomy operation for partial opening of the chest and the right-side chest was pressurized by the middle finger of the left hand to push the heart out. Immediately after the left anterior descending coronary artery hereinafter referred to as (LAD) was carefully stitched using a suture needle with 5-0 silk ligature, the heart was then repositioned in the thoracic cavity while both ends of the ligature were situated outside. The opposite ligature ends were passed through a PE tube (PE100, 2.5 cm) and allowed to stand loose for 20 min for stabilization. Via the cannula inserted into the femoral vein, vehicles or drugs were administered into the rats which were rendered to stand for 30 min in order to sufficiently elicit the efficacies of the drugs.
Next, the PE tube which had the doubled strands of the ligature passed therethrough was pushed toward the heart and then, set upright by tightly pulling end regions of the ligature with a hemostatic pincette while pressing the coronary artery.
After the reocclusion of the coronary artery in accordance with the above procedure, the rats were administered with 2 ml of a 1% Evans blue through an intravenous route. Subsequently, an excess of pentobarbital was intravenously injected to kill the rats, after which the heat was removed and then, deprived of the right ventricle and both atria. The left ventricle was cut horizontally to the heart apex into 5 or 6 slices which were weighed. From the surface of each slice, images were input with the aid of a Hi-scope into a computer installed with an image analyzing program (Image Pro Plus). From the images input into the computer, the area of the normal blood stream tissue region which appeared blue in a computer monitor and the area which appeared colorless were measured. The percentage of the colorless area to the total area of each slice was calculated and multiplied by the weight of each slice to determine the area at risk (AAR) of each slice. The AAR obtained from each slice was summed for all slices and the total AAR was divided by the total weight of the left ventricle to yield % AAR, as shown in the following mathematical formula 1:
AAR(%)=(summed AAR for all slices)/(total weight of left ventricle)×100 [Mathematical Formula 1]
During this fixation, 2,3,5-triphenyltetrazolium chloride was reduced into formazan dye by the myocardial dehydrogenase and its cofactor NADH, so that the normal regions of the tissue were colored brick-red. In contrast, the infarct zones of the tissue were deficient in the dehydrogenase and its cofactor, so that no reduction occurred on the 2,3,5-triphenyltetrazolium, allowing the color to remain unchanged.

[2] = test system: cerebral cortical neurons; assay: Protective activity for neuronal cells against iron-induced damage (LDH release); type: cell-based, rat; settings: 30 μM compound; 50 uM FeSO4, 24 hours; LDH reduction rate vs control
Description: From the brains of 17-18 day-old rat embryos, cerebral cortical neurons were isolated and then, cultured at 37° C. for 7-9 days in a 5% CO2 incubator. The cortical cell cultures were washed twice with a minimum essential medium (MEM) to reduce the serum concentration to 0.2% and pre-treated for 30 min with 30 μM of each of test compounds. For the experiments, the test compounds were dissolved in DMSO and diluted in a medium. At this time, the final concentration of DMSO was not allowed to exceed 0.2%. For a control group, only vehicle was applied.
After the pre-treatment with test compounds or vehicle, FeSO4 was added to a final concentration of 50 uM, and the cultures were maintained for 24 hours in a CO2 incubator. During incubation, lactate dehydrogenase (LDH) was released into the medium upon neuronal death by the oxidative toxicity of iron. The extent of neuronal damage was assessed by measuring the amount of LDH released into the media. The protective effect of the compounds of interest on neurons was evaluated by calculating the LDH reduction rate of treatment group compared with that of the control group.

[3] = test system: isolated rat aorta constricted with methoxamine; assay: Vasodilation effects on isolated aorta of rats (methoxamine-constricted rings); settings: isolated rat aorta constricted with methoxamine (3 μM); 50% relaxation
Description: Male Sprague-Dawly rats (350-450 g, obtained from the Experimental Animal Team of the Korea Research Institute of Chemical Technology) were knocked unconscious by hitting the occipital region, sacrificed by cervical dislocation, and underwent thoracotomy. After being quickly removed, the thoracic aorta was deprived of the adipose tissue and cut into aortic rings of 3 mm width. The aorta was lightly rubbed with cotton club soaked in a modified Krebs Henseleit buffer (Physiological Salt Solution, PSS) to remove the inner epithelial layer therefrom.
Thereafter, 3×10^−6 M methoxamine was applied to induce an intensive constriction in the vascular smooth muscle. When the vasoconstriction induced by the methoxamine was reached and maintained to a maximum, test compounds and controls were cumulatively added to the organ baths in concentrations of 1, 3, 10 and 30 μM so as to examine the vasodilation effect.
The change rate of constriction by the addition of the drugs compared to the maximal constriction induced by methoxamine was calculated to plot a concentration-relaxation response curve.

Row | SMILES | LD50 (in vivo) [mg/kg] | LDH (U/g) (isolated rat hearts) | EDP (MmHg) (isolated rat hearts) | LDVP × HR (%) (isolated rat hearts) | TTC (isolated rat hearts) [min] | AAR/LV (%) [1] [%] | IZ/AAR (%) [1] [%] | % Protection [2] [%] | IC50 [3] [µM]
1 | CCOC(=O)[C@@H]1Cc2ccccc2N1[C@H]1c2cc([N+](=O)[O-])ccc2O[C@](C)(C(OC)OC)[C@@H]1O [Example 2, 1-[(2S, 3R, 4S)-3,4-dihydro-2-dimethoxymethyl-3-hydroxy-2-methyl-6-nitro-2H-1-benzopyran-4-yl]-(2S)-2,3-dihydro-1H-indole-2-carboxylic acid ethyl ester] | > 1000 | 17.8 | 25.7 | 55.1 | 22.6 | 32.6 | 39.1 | 79 | 24.3
2 | COC(OC)[C@@]1(C)Oc2ccc([N+](=O)[O-])cc2[C@H](N2c3ccccc3C[C@H]2C(=O)OC(C)C)[C@H]1O [Example 10, 1-[(2S, 3R, 4S)-3,4-dihydro-2-dimethoxymethyl-3-hydroxy-2-methyl-6-nitro-2H-1-benzopyran-4-yl]-(2S)-2,3-dihydro-1H-indole-2-carboxylic acid isopropyl ester] | > 1000 |  |  |  |  |  |  |  | 
3 | CCOC(=O)[C@H]1Cc2ccccc2N1[C@@H]1c2cc([N+](=O)[O-])ccc2O[C@@](C)(C(OC)OC)[C@H]1O [Example 30, 1-[(2R, 3S, 4R)-3,4-dihydro-2-dimethoxymethyl-3-hydroxy-2-methyl-6-nitro-2H-1-benzopyran-4-yl]-(2R)-2,3-dihydro-1H-indole-2-carboxylic acid ethyl ester] | > 1000 | 9.2 | 11.3 | 64.1 | 27.1 | 33.6 | 38.9 |  | > 30
4 | CCCOC(=O)[C@H]1Cc2ccccc2N1[C@@H]1c2cc([N+](=O)[O-])ccc2O[C@@](C)(C(OC)OC)[C@H]1O [Example 34, 1[-(2R, 3S, 4R)-3,4-dihydro-2-dimethoxymethyl-3-hydroxy-2-methyl-6-nitro-2H-1-benzopyran-4-yl]-(2R)-2,3-dihydro-1H-indole-2-carboxylic acid n-propyl ester] | > 1000 |  |  |  |  |  |  |  | 

Reference: US6413983B1, “Benzopyranyl heterocycle derivatives, process for preparation thereof, and pharmaceutical compositions containing them” (Dongbu Hannong Chemical Co. Ltd., priority 2000, dated 2002)
